Results published in PMC3353318 (Bioorganic & Medicinal Chemistry, 2011).

What was measured:
A/M2 S31N mutant = A/M2 S31N mutant (Influenza A virus, UniProt P0DOF5, S31N); format: cell-based, influenza A/Udorn/72
A/M2 V27A mutant = A/M2 V27A mutant (Influenza A virus, UniProt P0DOF5, V27A); format: cell-based, influenza A/Udorn/72

| Substance | inhibition of S31N A/M2 channel activity (in words) (A/M2 S31N mutant) | inhibition of V27A A/M2 channel activity (in words) (A/M2 V27A mutant) |
| --- | --- | --- |
| 6,7,8,9,10,11-Hexahydro-9-methyl-5,7:9,11-dimethano-5H-benzocyclononen-7-amine hydrochloride [Compound 3] | Neither 3 nor 11 were able to inhibit | Neither 3 nor 11 were able to inhibit |
| N,N-Dimethyl-6,7,8,9,10,11-hexahydro-9-methyl-5,7:9,11-dimethano-5H-benzocyclononen-7-amine hydrochloride [Compound 11] | Neither 3 nor 11 were able to inhibit | Neither 3 nor 11 were able to inhibit |
| N-Benzyl-6,7,8,9,10,11-hexahydro-9-methyl-5,7:9,11-dimethano-5H-benzocyclononen-7-amine hydrochloride [Compound 6] | unable to inhibit | unable to inhibit |
